Data taken from article PMC9851200, “Multiparameter phenotypic screening for endogenous TFEB and TFE3 translocation identifies novel chemical series modulating lysosome function” (Autophagy, 2022).
Like-named read-outs stand apart in the source and are kept apart here.

How the values were obtained:
Assay in all cases: biochemical
Assay type in all cases: binding
[1] = molecular target: T1, cellular kinases of SH-SY5Y cells (Homo sapiens, UniProt Q16513); settings: 2µM; SH-SY5Y cells; labeling site Lys2; peptide DLKLDNLLLDTEGFVK
T1 construct: endogenous in cells; host or cells: SH-SY5Y
Description: (§1) As KINOMEscan is an in vitro assay, and as different cell types have variable kinase expression profiles we sought to determine the kinase binding profile in our SH-SY5Y TFEB-relocalization cell model. […] Bound kinases were pulled down and analyzed by mass spectrometry to determine the in situ kinase binding profile for each compound.

[2] = molecular target: cellular kinases of SH-SY5Y cells (Homo sapiens, UniProt Q8TBX8); settings: 2µM, SH-SY5Y cells, Labeling Site ATP, read-out: KiNativ in-cell binding, % Inhibition, PIP4K2C
Description: as §1

[3] = molecular target: T2, cellular kinases of SH-SY5Y cells (Homo sapiens, UniProt P51956); settings: 2µM; SH-SY5Y cells; Labeling Site Activation Loop; SKNIFLTQNGK; read-out: KiNativ in-cell binding, % Inhibition, NEK3
T2 construct: endogenous in cells; host or cells: SH-SY5Y
Description: as §1

[4] = molecular target: T3, cellular kinases of SH-SY5Y cells (Homo sapiens, UniProt Q00537); settings: 2µM; SH-SY5Y cells; Labeling Site Lys2; DLKPQNLLINEK; read-out: KiNativ in-cell binding, % Inhibition, CDK17/PCTAIRE2
T3 construct: endogenous in cells; host or cells: SH-SY5Y
Description: as §1

[5] = molecular target: T4, cellular kinases of SH-SY5Y cells (Homo sapiens, UniProt Q15131); settings: 2µM; SH-SY5Y cells; labeling site Lys2; peptide DLKVSNLLMTDK
T4 construct: endogenous in cells; host or cells: SH-SY5Y
Description: as §1

[6] = molecular target: cellular kinases of SH-SY5Y cells (Homo sapiens, UniProt Q8IU85); settings: 2µM, SH-SY5Y cells
Description: as §1

[7] = molecular target: cellular kinases of SH-SY5Y cells (Homo sapiens, UniProt P04049); settings: 2µM; SH-SY5Y cells; Labeling Site Lys2; DMKSNNIFLHEGLTVK; read-out: KiNativ in-cell binding, % Inhibition, RAF1
Description: as §1

[8] = molecular target: T5, cellular kinases of SH-SY5Y cells (Homo sapiens, UniProt Q8TCG2); settings: 2µM; SH-SY5Y cells; labeling site ATP; peptide SEEPYGQLNPKWTK
T5 construct: endogenous in cells; host or cells: SH-SY5Y
Description: as §1

[9] = test system: cellular kinases of SH-SY5Y cells
Description: as §1

[10] = molecular target: T6, cellular kinases of SH-SY5Y cells (Homo sapiens, UniProt Q9BYT3); settings: 2µM; SH-SY5Y cells; Labeling Site Lys2; DLKLENIMVK; read-out: KiNativ in-cell binding, % Inhibition, STK33
T6 construct: endogenous in cells; host or cells: SH-SY5Y
Description: as §1

[11] = molecular target: cellular kinases of SH-SY5Y cells (Homo sapiens, UniProt P27448); settings: 2µM; SH-SY5Y cells; Labeling Site Lys1; EVAIKIIDKTQLNPTSLQK; read-out: KiNativ in-cell binding, % Inhibition, MARK3
Description: as §1

[12] = molecular target: T7, cellular kinases of SH-SY5Y cells (Homo sapiens, UniProt Q96BR1); settings: 2µM; SH-SY5Y cells; Labeling Site Lys1; FYAVKVLQK; read-out: KiNativ in-cell binding, % Inhibition, SGK3
T7 construct: endogenous in cells; host or cells: SH-SY5Y
Description: as §1

[13] = molecular target: cellular kinases of SH-SY5Y cells (Homo sapiens, UniProt Q13557); settings: 2µM; SH-SY5Y cells; Labeling Site Lys1; IPTGQEYAAKIINTKK; read-out: KiNativ in-cell binding, % Inhibition, CaMK2d
Description: as §1

[14] = molecular target: T8, cellular kinases of SH-SY5Y cells (Homo sapiens, UniProt Q6PHR2); settings: 2µM; SH-SY5Y cells; labeling site Lys1; peptide EVVAIKCVAK
T8 construct: endogenous in cells; host or cells: SH-SY5Y
Description: as §1

[15] = molecular target: T9, cellular kinases of SH-SY5Y cells (Homo sapiens, UniProt Q13177); settings: 2µM; SH-SY5Y cells; Labeling Site Other; KNPQAVLDVLKFYDSNTVK; read-out: KiNativ in-cell binding, % Inhibition, PAK2
T9 construct: endogenous in cells; host or cells: SH-SY5Y
Description: as §1

[16] = molecular target: cellular kinases of SH-SY5Y cells (Homo sapiens, UniProt Q13163); settings: 2µM; SH-SY5Y cells; Labeling Site Lys2; DVKPSNMLVNTR; read-out: KiNativ in-cell binding, % Inhibition, MAP2K5
Description: as §1

[17] = molecular target: T10, cellular kinases of SH-SY5Y cells (Homo sapiens, UniProt Q92918); settings: 2µM, SH-SY5Y cells, read-out: KiNativ in-cell binding, % Inhibition, MAP4K1/HPK1
T10 construct: endogenous in cells; host or cells: SH-SY5Y
Description: as §1

[18] = molecular target: cellular kinases of SH-SY5Y cells (Homo sapiens, UniProt P29317); settings: 2µM; SH-SY5Y cells; Labeling Site Activation Loop; VLEDDPEATYTTSGGKIPIR; read-out: KiNativ in-cell binding, % Inhibition, EphA2
Description: as §1

[19] = molecular target: T11, cellular kinases of SH-SY5Y cells (Homo sapiens, UniProt P23743)
T11 construct: endogenous in cells; host or cells: SH-SY5Y
Description: as §1

T10 sequence (Q92918 whole entry): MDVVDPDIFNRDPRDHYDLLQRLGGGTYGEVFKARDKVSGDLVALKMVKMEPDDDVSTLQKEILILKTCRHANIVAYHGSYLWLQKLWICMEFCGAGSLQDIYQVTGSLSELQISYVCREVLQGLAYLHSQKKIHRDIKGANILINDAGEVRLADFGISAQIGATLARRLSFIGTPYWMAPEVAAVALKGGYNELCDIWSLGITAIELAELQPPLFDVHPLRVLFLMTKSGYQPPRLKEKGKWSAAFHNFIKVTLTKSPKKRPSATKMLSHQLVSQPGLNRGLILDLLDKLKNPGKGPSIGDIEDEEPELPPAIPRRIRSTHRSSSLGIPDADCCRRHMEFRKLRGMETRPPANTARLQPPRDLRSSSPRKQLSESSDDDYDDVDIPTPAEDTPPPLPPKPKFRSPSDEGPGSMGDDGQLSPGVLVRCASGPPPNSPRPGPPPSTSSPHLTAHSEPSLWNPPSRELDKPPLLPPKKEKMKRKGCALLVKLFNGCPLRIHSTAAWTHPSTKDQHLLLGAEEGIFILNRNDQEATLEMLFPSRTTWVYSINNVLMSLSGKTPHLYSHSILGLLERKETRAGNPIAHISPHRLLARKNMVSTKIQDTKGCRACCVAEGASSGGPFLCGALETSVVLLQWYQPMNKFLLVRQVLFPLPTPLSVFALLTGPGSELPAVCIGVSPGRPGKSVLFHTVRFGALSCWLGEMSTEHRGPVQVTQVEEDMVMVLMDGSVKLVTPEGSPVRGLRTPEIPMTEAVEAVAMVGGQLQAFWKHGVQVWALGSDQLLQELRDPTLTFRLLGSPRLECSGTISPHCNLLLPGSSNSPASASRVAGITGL
cellular kinases of SH-SY5Y cells (Homo sapiens, UniProt Q8TBX8), sequence (Q8TBX8 whole entry): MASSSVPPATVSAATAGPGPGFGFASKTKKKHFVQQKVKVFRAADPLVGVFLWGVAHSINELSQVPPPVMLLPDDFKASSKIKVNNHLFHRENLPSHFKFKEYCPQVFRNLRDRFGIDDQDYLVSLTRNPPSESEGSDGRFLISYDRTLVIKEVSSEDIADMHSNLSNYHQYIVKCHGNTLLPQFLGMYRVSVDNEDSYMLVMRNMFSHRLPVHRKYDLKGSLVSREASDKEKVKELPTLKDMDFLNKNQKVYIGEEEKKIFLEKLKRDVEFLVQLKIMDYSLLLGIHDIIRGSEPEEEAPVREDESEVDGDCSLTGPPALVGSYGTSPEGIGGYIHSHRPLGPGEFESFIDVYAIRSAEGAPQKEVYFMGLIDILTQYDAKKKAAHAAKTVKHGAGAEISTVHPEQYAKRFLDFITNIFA
cellular kinases of SH-SY5Y cells (Homo sapiens, UniProt Q8IU85), sequence (Q8IU85 whole entry): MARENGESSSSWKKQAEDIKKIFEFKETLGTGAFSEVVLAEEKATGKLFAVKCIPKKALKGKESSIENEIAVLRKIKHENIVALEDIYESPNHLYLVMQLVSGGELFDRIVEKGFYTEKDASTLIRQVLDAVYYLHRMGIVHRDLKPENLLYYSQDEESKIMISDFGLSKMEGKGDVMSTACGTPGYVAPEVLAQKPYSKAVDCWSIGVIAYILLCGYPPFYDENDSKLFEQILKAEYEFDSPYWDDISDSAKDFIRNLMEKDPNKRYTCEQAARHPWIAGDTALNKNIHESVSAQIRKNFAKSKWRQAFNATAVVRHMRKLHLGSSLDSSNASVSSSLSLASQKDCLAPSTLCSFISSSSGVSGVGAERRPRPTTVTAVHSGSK
cellular kinases of SH-SY5Y cells (Homo sapiens, UniProt Q13557), sequence (Q13557 whole entry): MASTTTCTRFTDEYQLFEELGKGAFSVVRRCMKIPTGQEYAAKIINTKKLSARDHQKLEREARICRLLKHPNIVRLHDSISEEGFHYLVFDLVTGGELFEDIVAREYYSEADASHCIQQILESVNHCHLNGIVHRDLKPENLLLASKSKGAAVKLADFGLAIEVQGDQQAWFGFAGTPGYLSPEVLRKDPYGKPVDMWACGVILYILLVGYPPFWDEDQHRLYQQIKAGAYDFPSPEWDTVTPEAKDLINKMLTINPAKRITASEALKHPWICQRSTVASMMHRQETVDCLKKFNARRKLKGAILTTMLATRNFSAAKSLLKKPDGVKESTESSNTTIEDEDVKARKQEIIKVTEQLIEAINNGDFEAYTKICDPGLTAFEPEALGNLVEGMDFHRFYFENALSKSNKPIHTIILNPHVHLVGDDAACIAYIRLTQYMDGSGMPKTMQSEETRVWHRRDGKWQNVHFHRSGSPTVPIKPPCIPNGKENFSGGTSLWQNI
T2 sequence (P51956 whole entry): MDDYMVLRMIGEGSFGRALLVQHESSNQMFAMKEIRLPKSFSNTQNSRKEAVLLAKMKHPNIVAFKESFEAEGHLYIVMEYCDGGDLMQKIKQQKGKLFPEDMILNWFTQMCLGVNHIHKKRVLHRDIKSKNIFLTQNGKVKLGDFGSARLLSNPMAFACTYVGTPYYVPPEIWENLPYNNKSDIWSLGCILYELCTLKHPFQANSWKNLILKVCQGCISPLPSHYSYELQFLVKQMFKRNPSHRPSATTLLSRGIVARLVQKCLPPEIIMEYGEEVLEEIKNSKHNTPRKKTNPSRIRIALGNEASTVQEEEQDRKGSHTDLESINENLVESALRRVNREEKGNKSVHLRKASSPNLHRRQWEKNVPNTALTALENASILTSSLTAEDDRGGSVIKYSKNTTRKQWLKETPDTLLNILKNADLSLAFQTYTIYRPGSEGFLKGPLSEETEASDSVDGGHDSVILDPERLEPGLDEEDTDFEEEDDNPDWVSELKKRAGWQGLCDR
T11 sequence (P23743 whole entry): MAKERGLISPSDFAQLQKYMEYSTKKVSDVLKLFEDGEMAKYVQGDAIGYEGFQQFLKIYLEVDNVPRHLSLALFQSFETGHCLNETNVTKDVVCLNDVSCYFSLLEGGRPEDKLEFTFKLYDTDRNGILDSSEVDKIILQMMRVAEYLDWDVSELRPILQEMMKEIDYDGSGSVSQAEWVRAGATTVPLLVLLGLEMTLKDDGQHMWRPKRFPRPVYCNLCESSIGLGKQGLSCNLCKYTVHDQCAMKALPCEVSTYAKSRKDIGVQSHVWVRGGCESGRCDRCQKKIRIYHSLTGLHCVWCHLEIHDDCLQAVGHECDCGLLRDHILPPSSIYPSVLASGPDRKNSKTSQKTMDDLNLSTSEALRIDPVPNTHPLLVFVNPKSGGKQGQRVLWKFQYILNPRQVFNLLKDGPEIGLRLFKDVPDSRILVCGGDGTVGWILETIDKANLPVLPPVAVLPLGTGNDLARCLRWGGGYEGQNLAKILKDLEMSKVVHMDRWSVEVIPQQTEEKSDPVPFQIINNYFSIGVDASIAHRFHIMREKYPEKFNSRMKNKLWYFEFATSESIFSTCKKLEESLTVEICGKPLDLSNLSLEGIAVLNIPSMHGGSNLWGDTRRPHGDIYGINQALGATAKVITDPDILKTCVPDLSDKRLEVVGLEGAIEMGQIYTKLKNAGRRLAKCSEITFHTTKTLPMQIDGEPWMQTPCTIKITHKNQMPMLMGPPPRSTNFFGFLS
T3 sequence (Q00537 whole entry): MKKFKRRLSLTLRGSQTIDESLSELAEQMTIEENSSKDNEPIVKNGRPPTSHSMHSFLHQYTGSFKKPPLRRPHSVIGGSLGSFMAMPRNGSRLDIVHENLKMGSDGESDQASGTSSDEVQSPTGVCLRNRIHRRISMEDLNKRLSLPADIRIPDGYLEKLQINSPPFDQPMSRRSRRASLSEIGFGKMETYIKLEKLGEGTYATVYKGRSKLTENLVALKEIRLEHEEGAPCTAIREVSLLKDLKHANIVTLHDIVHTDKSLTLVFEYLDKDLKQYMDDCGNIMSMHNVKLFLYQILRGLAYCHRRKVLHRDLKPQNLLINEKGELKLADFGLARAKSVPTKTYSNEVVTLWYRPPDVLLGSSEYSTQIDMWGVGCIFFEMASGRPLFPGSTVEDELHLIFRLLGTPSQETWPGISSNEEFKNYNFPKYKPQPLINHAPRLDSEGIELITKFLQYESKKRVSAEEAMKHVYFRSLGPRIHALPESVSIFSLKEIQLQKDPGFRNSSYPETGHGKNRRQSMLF
cellular kinases of SH-SY5Y cells (Homo sapiens, UniProt P29317), sequence (P29317 24-976): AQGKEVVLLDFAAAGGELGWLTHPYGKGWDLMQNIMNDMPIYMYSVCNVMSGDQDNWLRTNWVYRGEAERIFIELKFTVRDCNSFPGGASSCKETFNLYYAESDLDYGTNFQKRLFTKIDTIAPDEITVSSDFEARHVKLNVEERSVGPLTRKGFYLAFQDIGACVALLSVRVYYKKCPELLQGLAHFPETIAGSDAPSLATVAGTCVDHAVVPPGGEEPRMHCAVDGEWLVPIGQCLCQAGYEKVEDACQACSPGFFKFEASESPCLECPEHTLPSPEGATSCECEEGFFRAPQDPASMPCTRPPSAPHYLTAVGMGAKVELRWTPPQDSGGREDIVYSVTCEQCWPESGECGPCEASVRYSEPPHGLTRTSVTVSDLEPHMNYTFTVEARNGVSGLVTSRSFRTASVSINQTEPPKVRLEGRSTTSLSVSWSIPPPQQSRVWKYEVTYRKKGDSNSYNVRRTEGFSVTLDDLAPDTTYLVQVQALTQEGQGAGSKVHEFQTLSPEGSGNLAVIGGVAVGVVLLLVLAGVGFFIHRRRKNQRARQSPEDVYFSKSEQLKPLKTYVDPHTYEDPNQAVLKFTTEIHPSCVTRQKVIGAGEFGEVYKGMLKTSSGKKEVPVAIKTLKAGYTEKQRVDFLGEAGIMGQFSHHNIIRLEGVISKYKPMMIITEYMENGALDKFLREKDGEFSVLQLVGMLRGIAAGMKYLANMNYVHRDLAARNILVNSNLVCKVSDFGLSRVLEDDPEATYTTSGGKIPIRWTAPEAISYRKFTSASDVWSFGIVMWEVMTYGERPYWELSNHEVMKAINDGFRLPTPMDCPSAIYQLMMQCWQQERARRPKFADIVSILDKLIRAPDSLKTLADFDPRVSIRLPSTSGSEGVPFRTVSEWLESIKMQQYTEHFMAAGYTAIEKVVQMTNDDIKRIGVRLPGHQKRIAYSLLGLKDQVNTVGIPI

## Cc1cccc(-c2nc(Nc3ccc4ncsc4c3)c3ccccc3n2)n1 [NK140]
[1]
  KiNativ in-cell binding, PKN2: -28.2
[2]; TLVIKEVSSEDIADMHSNLSNYHQYIVK
  inhibition at 2 µM: -7%
[2]; VKELPTLKDMDFLNK
  inhibition at 2 µM: 7.2%
[3]
  inhibition at 2 µM: -13.4%
[4]
  inhibition at 2 µM: 13.2%
[5]
  KiNativ in-cell binding, CDK10: 3.3
[6]; Labeling Site Lys1, LFAVKCIPK, read-out: KiNativ in-cell binding, % Inhibition, CaMK1d
  inhibition at 2 µM: -23%
[6]; labeling site Lys2, peptide DLKPENLLYYSQDEESK
  KiNativ in-cell binding, CaMK1d: -24.1
[7]
  inhibition at 2 µM: 32.5%
[8]
  KiNativ in-cell binding, PI4K2B: 11.9
[9]
  KiNativ in-cell binding, % Inhibition, CaMK2a, CaMK2b, CaMK2d, CaMK2g: 16.4%
  KiNativ in-cell binding, AKT1, AKT3: -0.000814
[9]; 2 µM
  KiNativ in-cell binding, % Inhibition, AKT1, AKT3: 34.2%
[9]; 2µM, SH-SY5Y cells, Labeling Site ATP Loop, GKFAVVR
  KiNativ in-cell binding, % Inhibition, STK17A/DRAK1, STK17B/DRAK2: -4.6%
[9]; 2µM, SH-SY5Y cells, Labeling Site ATP Loop, GKFGNVYLAR
  KiNativ in-cell binding, % Inhibition, AURKA/AurA, AURKB/AurB, AURKC/AurC: 24.2%
[9]; 2µM, SH-SY5Y cells, Labeling Site ATP Loop, KIGCGNFGELR
  KiNativ in-cell binding, % Inhibition, CSNK1G1, CSNK1G2, CSNK1G3: 8.1%
[9]; 2µM, SH-SY5Y cells, Labeling Site Activation Loop, IGDLGLATLKR
  KiNativ in-cell binding, % Inhibition, Wnk1, Wnk2, Wnk4: 6.9%
[9]; 2µM, SH-SY5Y cells, Labeling Site Activation Loop, KIYSGDYYR
  KiNativ in-cell binding, % Inhibition, MERTK/MER, TYRO3: -4.5%
[9]; 2µM, SH-SY5Y cells, Labeling Site Activation Loop, SKNVFYDNGK
  KiNativ in-cell binding, % Inhibition, KSR1, KSR2: 5.1%
[9]; 2µM, SH-SY5Y cells, Labeling Site Lys1, EVAIKIIDK
  KiNativ in-cell binding, % Inhibition, MARK3, MARK4: 2.7%
[9]; 2µM, SH-SY5Y cells, Labeling Site Lys1, EVAVKIIDK
  KiNativ in-cell binding, % Inhibition, MARK1, MARK2: 1.8%
[9]; 2µM, SH-SY5Y cells, Labeling Site Lys2, DIKAGNILLTEPGQVK
  KiNativ in-cell binding, % Inhibition, TAOK1, TAOK3: 26.0%
[9]; 2µM, SH-SY5Y cells, Labeling Site Lys2, DIKGANILR
  KiNativ in-cell binding, % Inhibition, MAP3K2, MAP3K3: 28.5%
[9]; 2µM, SH-SY5Y cells, Labeling Site Lys2, DIKPANVFITATGVVK
  KiNativ in-cell binding, % Inhibition, NEK6, NEK7: -7.5%
[9]; 2µM, SH-SY5Y cells, Labeling Site Lys2, DLKAENLLLDADMNIK
  KiNativ in-cell binding, % Inhibition, MARK2, MARK3: -28.6%
[9]; 2µM, SH-SY5Y cells, Labeling Site Lys2, DLKCDNIFITGPTGSVK
  KiNativ in-cell binding, % Inhibition, Wnk1, Wnk2, Wnk3: 6.4%
[9]; 2µM, SH-SY5Y cells, Labeling Site Lys2, DLKLDNVMLDSEGHIK
  KiNativ in-cell binding, % Inhibition, PRKCA/PKCa, PRKCB/PKCb: -2.4%
[9]; 2µM, SH-SY5Y cells, Labeling Site Lys2, DVKPDNFLMGLGKK
  KiNativ in-cell binding, % Inhibition, CSNK1D, CSNK1E: 19.5%
[9]; 2µM, SH-SY5Y cells, Labeling Site Lys2, DVKPDNMLLDK
  KiNativ in-cell binding, % Inhibition, ROCK1, ROCK2: -44.8%
[9]; 2µM, SH-SY5Y cells, Labeling Site Lys2, DVKPENLLYTSK
  KiNativ in-cell binding, % Inhibition, MAPKAPK2, MAPKAPK3: 16.8%
[9]; 2µM, SH-SY5Y cells, Labeling Site Other, NLIPMDPNGLSDPYVKLK
  KiNativ in-cell binding, % Inhibition, PRKCA/PKCa, PRKCG/PKCg: -18.8%
[9]; 2µM, SH-SY5Y cells, Labeling Site Unassigned, SGTPMQSAAKAPYLAK
  KiNativ in-cell binding, % Inhibition, PI4KA, PI4KAP2: 1.2%
[9]; 2µM, SH-SY5Y cells, labeling site Lys2, peptide DIKPGNIMR
  KiNativ in-cell binding, IKKe, TBK1: -85.5
[9]; 2µM, SH-SY5Y cells, labeling site Lys2, peptide DVKGNNILLTTEGGVK
  KiNativ in-cell binding, MYO3A, MYO3B: 0.9
[9]; 2µM, SH-SY5Y cells, labeling site Lys2, peptide DVKPSNILVNSR
  KiNativ in-cell binding, MAP2K1, MAP2K2: -3.2
[10]
  inhibition at 2 µM: -1.4%
[11]
  inhibition at 2 µM: 18.5%
[12]
  inhibition at 2 µM: 1%
[13]
  inhibition at 2 µM: 30.5%
[14]
  KiNativ in-cell binding, ULK3: -25.0
[15]
  inhibition at 2 µM: 42.4%
[16]
  inhibition at 2 µM: -14.7%
[17]; Labeling Site Lys1, DKVSGDLVALKMVK
  inhibition at 2 µM: 6.9%
[17]; Labeling Site Lys2, DIKGANILINDAGEVR
  inhibition at 2 µM: 30.2%
[18]
  inhibition at 2 µM: 1.2%
[19]
  KiNativ in-cell binding, DGKA: -19.6
